In brackets after ≈: the same amount, converted by molar mass.
Columns and labels:
[1] = test system: Staphylococcus aureus; assay: Antibacterial activity against Staphylococcus aureus; assay type: functional
[2] = test system: Escherichia coli; assay: Antibacterial activity against Escherichia coli MTCC 443 by broth microdilution method; assay type: functional
[3] = test system: Staphylococcus aureus; assay: Antibacterial activity against Staphylococcus aureus MTCC 96; assay type: functional
[4] = test system: Escherichia coli; assay: Antibacterial activity against Escherichia coli MTCC 443; assay type: functional
[5] = test system: Streptococcus pyogenes; assay: Antibacterial activity against Streptococcus pyogenes MTCC 442; assay type: functional
[6] = test system: Bacillus subtilis; assay: Antibacterial activity against Bacillus subtilis MTCC 441 by broth microdilution method; assay type: functional, organism-based
[7] = test system: Rattus norvegicus; assay: Anti inflammatory activity in Wistar rat assessed as carrageenan-induced paw edema at 10 mg/kg, po pretreated for 15 mins followed by carrageenan addition measured after 90 mins (reference value: 38.7%); assay type: functional
[8] = Selectivity index, ratio of IC50 for rat seminal vesicles COX1 to IC50 for recombinant human COX2
[9] = test system: MCF7; assay: Antiproliferative activity against human MCF7 cells after 48 hrs by SRB assay; assay type: functional, cell-based; conditions: MCF7, 48 h
[10] = test system: HeLa; assay: Antiproliferative activity against human HeLa cells after 48 hrs by SRB assay; assay type: functional, cell-based
[11] = test system: IMR-32; assay: Antiproliferative activity against human IMR32 cells after 48 hrs by SRB assay; assay type: functional, cell-based; conditions: IMR-32, 48 h
[12] = test system: A549; assay: Antiproliferative activity against human A549 cells after 48 hrs by SRB assay; assay type: functional, cell-based; conditions: A549, 48 h
[13] = test system: Rattus norvegicus; assay: Anti inflammatory activity in rat assessed as inhibition of carrageenan-induced hind paw edema at 50 mg/kg measured after 1 to 4 hrs by plethysmographic method relative to control; assay type: functional
[14] = test system: Mycobacterium tuberculosis; assay: Antitubercular activity against Mycobacterium tuberculosis H37Rv at 100 ug/ml by broth microdilution method relative to control; assay type: functional
[15] = test system: Pseudomonas aeruginosa; assay: Antibacterial activity against Pseudomonas aeruginosa MTCC 1688; assay type: functional
[16] = test system: MCF7; assay: Antiproliferative activity against human MCF7 cells; assay type: functional, cell-based
[17] = test system: Rattus norvegicus; assay: Ulcerogenic activity in albino rat assessed as ulcer index at 20 mg/kg, po administered daily for 3 successive days in two equal doses at 0 and 12 hrs measured at 6 hrs post last dose by magnifying lens based assay; assay type: toxicity, organism-based; conditions: in vivo
[18] = test system: Fusarium oxysporum; assay: Antifungal activity against Fusarium oxysporum f. sp. albedinis; assay type: functional, organism-based
[19] = test system: B16-F10; assay: Antiproliferative activity against mouse B16F10 cells after 48 hrs by MTT assay; assay type: functional, cell-based; conditions: B16-F10, 48 h
[20] = test system: MCF7; assay: Antiproliferative activity against human MCF7 cells after 48 hrs by MTT assay; assay type: functional, cell-based; conditions: MCF7, 48 h
[21] = test system: SGC-7901; assay: Antiproliferative activity against human SGC7901 cells after 48 hrs by MTT assay; assay type: functional, cell-based; conditions: SGC-7901, 48 h
[22] = test system: SMMC-7721; assay: Antiproliferative activity against human SMMC7721 cells after 48 hrs by MTT assay; assay type: functional, cell-based; conditions: SMMC-7721, 48 h
[23] = test system: K562; assay: Growth inhibition in human K562 cells at 10^-5 mol/L relative to control; assay type: functional; conditions: read-out: GI
[24] = organism: Ovis aries; assay: Selectivity index, ratio of IC50 for ovine COX1 to IC50 for ovine COX2
[25] = test system: Rattus norvegicus; assay: Anti inflammatory activity in Wistar rat assessed as inhibition of carrageenan-induced paw edema at 5 mg/kg, po pretreated for 30 mins followed by carrageenan addition measured up to 4 hrs relative to control; assay type: functional
[26] = test system: Leishmania infantum; assay: Antileishmanial activity against Leishmania infantum MCAN/BR/97/P142 promastigotes after 24 hrs; assay type: functional, organism-based; conditions: MCAN/BR/97/P142, 24 h
[27] = test system: Leishmania amazonensis; assay: Antileishmanial activity against Leishmania amazonensis MHOM/BR/77/LTB0016 promastigotes after 24 hrs; assay type: functional, organism-based; conditions: MHOM/BR/77/LTB0016, 24 h
[28] = test system: Leishmania amazonensis; assay: Antileishmanial activity against Leishmania amazonensis axenic amastigotes after 24 hrs; assay type: functional, organism-based
[29] = test system: Leishmania amazonensis; assay: Antileishmanial activity against Leishmania amazonensis amastigotes assessed as reduction in […] lode in early log phase after 24 hrs; assay type: functional, organism-based
[30] = test system: Leishmania amazonensis; assay: Antileishmanial activity against Leishmania amazonensis amastigotes assessed as reduction in […] lode in late log phase after 24 hrs; assay type: functional, organism-based
[31] = test system: Leishmania amazonensis; assay: Antileishmanial activity against Leishmania amazonensis amastigotes after 24 hrs by MTT assay; assay type: functional, organism-based
[32] = test system: Candida albicans; assay: Antifungal activity against Candida albicans after 48 hrs; assay type: functional
[33] = test system: Yarrowia lipolytica; assay: Antifungal activity against Candida lipolytica after 48 hrs; assay type: functional

CN[C@@H]1[C@H](O[C@H]2[C@H](O[C@H]3[C@H](O)[C@@H](O)[C@H](N=C(N)N)[C@@H](O)[C@@H]3N=C(N)N)O[C@@H](C)[C@]2(O)C=O)O[C@@H](CO)[C@H](O)[C@H]1O [STREPTOMYCIN]
Activity [1]: 500 µg/mL
Activity [2]: 500 µg/mL

CC1(C)S[C@@H]2[C@H](NC(=O)[C@H](N)c3ccccc3)C(=O)N2[C@H]1C(=O)O [AMPICILLIN]
Activity [3]: 200 µg/mL
Activity [4]: 100 µg/mL
Activity [5]: 200 µg/mL
IC50 [6]: 250 µg/mL (≈ 715 µM)
MIC [6]: 250 µg/mL (≈ 715 µM)

Cc1ccc(/N=C/c2ccc(OCCOc3cc(C)nn3-c3ccccc3)cc2)cc1
Activity [7]: 19.4%
Ratio IC50 [8]: 0.44

COC(=O)Nc1nc2cc(C(=O)c3cccs3)ccc2[nH]1 [NOCODAZOLE]
IC50 [9]: 1250 nM
IC50 [10]: 1200 nM
IC50 [11]: 1.3 µM
IC50 [12]: 900 nM

O=C(O)Cc1ccccc1Nc1c(Cl)cccc1Cl [DICLOFENAC]
inhibition in vivo at 50 mg/kg [13]: 86.7%

CO[C@H]1/C=C/O[C@@]2(C)Oc3c(C)c(O)c4c(O)c(c(/C=N/N5CCN(C)CC5)c(O)c4c3C2=O)NC(=O)/C(C)=C\C=C\[C@H](C)[C@H](O)[C@@H](C)[C@@H](O)[C@@H](C)[C@H](OC(C)=O)[C@@H]1C [RIFAMPIN]
inhibition at 100 µg/mL [14]: 98%

O=c1[nH]/c(=C\c2nc3cc(Cl)ccc3s2)s/c1=C\c1cn(-c2ccccc2)nc1-c1ccc(Cl)cc1
Activity [4]: 100 µg/mL
Activity [15]: 200 µg/mL

CCCCCCCCCCn1nc(-c2cc(Br)ccc2Cl)c(C(N)=O)c1N
IC50 [16]: 2500 nM

O=c1[nH]/c(=C\c2nc3cc(Cl)ccc3s2)s/c1=C\c1cn(-c2ccccc2)nc1-c1ccc(Br)cc1
Activity [3]: 100 µg/mL
Activity [5]: 100 µg/mL
Activity [15]: 200 µg/mL

COc1ccc2c(c1)c(CC(=O)O)c(C)n2C(=O)c1ccc(Cl)cc1 [INDOMETHACIN]
UI [17]: 12.82

C/C(O)=C/C(=O)c1cc(C)n(C)n1
IC50 [18]: 55 nM
MIC [18]: 0.055 µM (≈ 9.91 ng/mL)

CS(=O)(=O)Nc1ccc([N+](=O)[O-])cc1Oc1ccccc1 [NIMESULIDE]
Activity [7]: 23.4%

C#Cc1cccc(Nc2ncnc3cc(OCCOC)c(OCCOC)cc23)c1 [ERLOTINIB]
IC50 [19]: 120 nM
IC50 [20]: 80 nM

COc1ccc(/C=C/C(=O)OCc2cn(-c3ccccc3)nc2-c2ccc(OC)cc2)cc1
IC50 [20]: 300 nM

Clc1ccc(-c2cc(-c3nnc(/C=C/c4ccc5c(c4)OCO5)o3)[nH]n2)cc1Cl
IC50 [9]: 3900 nM
IC50 [10]: 2800 nM
IC50 [11]: 4.1 µM
IC50 [12]: 2300 nM

O=c1[nH]cc(F)c(=O)[nH]1 [FLUOROURACIL]
IC50 [21]: 16 µg/mL (≈ 123 µM)
IC50 [22]: 19.2 µg/mL (≈ 148 µM)

Cc1cc(C)n(C(=O)c2cc(-c3ccc(F)cc3F)ccc2O)n1
inhibition of growth at 10 µM [23]: 70%

COc1ccc(-c2cc(-c3ccccc3)nn2CC(=O)Nc2ccc(S(N)(=O)=O)cc2)cc1
UI [17]: 2.79
Ratio IC50 [24]: 11.1
inhibition in vivo at 5 mg/kg [25]: 81%

Cc1n[nH]c(O)c1C(NNC(N)=O)c1ccc(O)cc1 (stereo not drawn)
MIC ([2]; Escherichia coli, MTCC 443): 0.25 µg/mL (≈ 0.902 µM)

N=C(N)c1ccc(OCCCCCOc2ccc(C(=N)N)cc2)cc1 [PENTAMIDINE]
IC50 [26]: 62 µM
IC50 [27]: 21 µM

Cc1cc(OCCOc2ccc(/C=N/c3ccccc3)cc2)n(-c2ccccc2)n1
Activity [7]: 13.4%
Ratio IC50 [8]: 0.51

CC(=O)NC1=NN(C(C)=O)C(c2cn(-c3ccccc3)nc2-c2ccc(O)cc2)S1 (stereo not drawn)
inhibition in vivo at 50 mg/kg [13]: > 84.2%

Cc1nn(-c2ccc(S(=O)(=O)Nc3ccccc3)cc2)c(Cl)c1Br
IC50 [26]: 59 µM
IC50 [27]: 70 µM

Cc1cccc(NS(=O)(=O)c2ccccc2)c1-c1ccn(S(=O)(=O)c2ccccc2)n1
IC50 [28]: 56 µM
IC50 [29]: 6.7 µM
IC50 [30]: 41.3 µM

Cc1ccc(-c2cc(C(F)(F)F)nn2-c2ccc(S(N)(=O)=O)cc2)cc1
Ratio IC50 [8]: 0.0028

CC(=O)N1CCN(c2ccc(OCC3COC(Cn4ccnc4)(c4ccc(Cl)cc4Cl)O3)cc2)CC1 (stereo not drawn) [KETOCONAZOLE]
IC50 [28]: 164 µM
IC50 [29]: 12.5 µM
IC50 [30]: 29.8 µM

COc1ccc(-n2ncc(-c3nnn[nH]3)c2N)cc1
IC50 [31]: 22.3 µM

COc1cc(/C=C/c2nnc(-c3cc(-c4ccc(Cl)cc4)n[nH]3)o2)cc(OC)c1OC
IC50 [9]: 1800 nM
IC50 [10]: 2300 nM
IC50 [11]: 3.2 µM
IC50 [12]: 1500 nM

COc1ccccc1C1CC(c2ccccc2)=NN1C(=N)N (stereo not drawn)
MIC [32]: 15.6 to 62.5 µg/mL (≈ 53 to 212 µM)
MIC [33]: 15.6 to 62.5 µg/mL (≈ 53 to 212 µM)

CCn1cc(C(=O)O)c(=O)c2cc(F)c(N3CCNCC3)cc21 [NORFLOXACIN]
IC50 [6]: 100 µg/mL (≈ 313 µM)
MIC [6]: 100 µg/mL (≈ 313 µM)

CC(=O)NC1=NN(C(C)=O)C(c2cn(-c3ccccc3)nc2-c2ccc([N+](=O)[O-])cc2)S1 (stereo not drawn)
inhibition in vivo at 50 mg/kg [13]: > 84.2%
